Measured values from paper PMC12731105, “Design and Synthesis of New Quinoxaline Analogs to Regenerate Sensory Auditory Hair Cells” (Cells, 2025).
Converted amounts (≈) assume the structure as drawn.

Tests used:
mouse organ of Corti = experiment: EdU proliferation assay in the mouse organ of Corti; format: in vivo; settings: mice, single IP 300 mg/kg; for EdU-positive cells in the OC at 72 h: 72 h treatment group; for EdU-positive cells in the OC at 24 h and 48 h: EdU 50 mg/kg, 4 h, unpaired T-test, p < 0.05
Procedure: C57BL/6J male and female mice between postnatal day 24 and 30 P-24-30) were randomized into control and experimental groups (9 mice per group per compound), with each experimental group receiving a single intraperitoneal (IP) injection of Qx-294 or Qx-301 at a dose of 300 mg/kg body weight, dissolved in dimethyl sulfoxide (DMSO). Controls consisted of treatment with DMSO alone (vehicle). A total of 90 adult wild-type C57/BL6 mice were used in this study. Based on the analysis, animals were examined at various times following treatment as described below.
In vitro cell proliferation effects of all ten initial compounds (Figure 1A,B) were tested on HEI-OC1, Neuro-2A and HT-1080 cells by TACS® 3-(4,5-dimethylthiazol-2-yl)-2,5-diphenyltetrazolium bromide (MTT) Cell Proliferation Assay (R&D Systems, Minneapolis, MN, USA, 4890-025-K), following the manufacturer’s protocol. Absorbance was measured with SpectraMax® M Series Multi-Mode Microplate Reader with Soft Max Pro 7.2 GxP Software (Molecular Devices, Sunnyvale, CA, USA), and the average OD in control cells was taken as 100% of viability. Upon selecting the most viable compounds (Qx-294 and Qx-301), we proceeded with in vivo experiments. For zebrafish treatment, animals were incubated for varied times with different concentrations (50, 100, 150, 200, 250, and 300 μg/mL) of Qx-294 or Qx-301 diluted in swimming (E3) media or administered via IP injections. Mice treatment followed the same procedures as described in [18]. Following treatment, animals or tissue samples were incubated in Click-it EdU or Click-it Plus TUNEL kits (Thermo Scientific, Waltham, MA, USA), following the manufacturer’s instructions to label proliferating and apoptotic cells, respectively.
Cell numbers in mouse cochleae or fish, as well as fish neuromast morphologies, were evaluated in 25 zebrafish per drug and treatment group across three experimental runs. For mouse analyses, 18 cochleae (from 9 mice) per treatment and three experimental repetitions were examined. Images were analyzed at 200X magnification, obtained from different neuromasts and cochlear regions (apex, middle, and base). HCs were quantified in the mouse OC by counting M7a-positive cells, with HC identity further confirmed by phalloidin-labeled stereocilia. Apoptosis and cell proliferation events, on the other hand, were quantified by counting TUNEL- and EdU-positive cells, respectively. […] The number of HCs (IHCs and OHCs) is expressed as units per 200 μm. […] IHCs and OHCs were counted on reconstructed confocal stacks using NIH ImageJ v1.8.0 software. […] Reliability statistics were calculated in SPSS v22.0. […] Fluorescence incorporation following treatment with FM1-43 was quantified according to [19] using ImageJ. […]

Kinetic solubility assay = format: physicochemical; settings: for solubility at 6 h: physiological buffer, pH 7.4, kinetic solubility, physiological buffer pH 7.4, room temperature, six hours
Procedure: A stock solution of each active compound in DMSO (10 mg/mL) was prepared and diluted into physiological buffer (pH 7.4) to a concentration of 100 µg/mL, and the mixture was left at room temperature for six hours. After six hours, the sample was centrifuged, and the supernatant was diluted with a methanol-water solution containing an internal standard (IS). The calibration curve was established using seven-point standards prepared by serial dilution in a range that the unknown sample signal would likely fall in and precisely simulating the sample preparation process. The standards and samples were quantified using LC-MS/MS, and unknown concentrations were back-calculated from the calibration curve.

[1] = Cytotoxicity, MTT colorimetric microculture assay; format: cell-based; settings: mouse, HEI-OC1 cells (auditory cell line), NCI criterion of cytotoxicity IC50 < 20 μg/mL
Procedure: The cytotoxicity of Qx-294 and Qx-301 compounds was assessed in the mouse auditory HEI-OC1 cell line using the (MTT) colorimetric microculture assay method as previously described. HEI-OC1 cells were cultured in DMEM (Corning, NY, USA, 10-013-CVC) supplemented with 10% fetal bovine serum (FBS) (Pansera) and 50 μg/mL ampicillin for 12 h. For cytotoxic assessment, increasing concentrations of Qx-294 and Qx-301 were added to a HEI-OC1 cell suspension (5 × 10^4 cells/well). Cell growth was determined 72 h later by adding 50 µL of MTT (2.5 mg/mL). This was reduced by mitochondrial dehydrogenase of viable cells in an insoluble blue formazan product during the 4 h contact period at 37 °C. After the supernatant was removed, the formazan crystals were solubilized by adding DMSO (100 µL). These plates were read at 570 nm with SpectraMax® M Series Multi-Mode Microplate Reader with Soft Max Pro 7.2 GxP Software (Molecular Devices, Sunnyvale, CA, USA). At each dose level of the compounds tested, as well as the untreated (vehicle-only) controls, absorbance values were recorded and compared between different treatment and time points to assess cell growth and viability.

[2] = test system: mechanotransduction channel activity of neuromast HCs; experiment: FM1-43 uptake in zebrafish neuromasts; format: in vivo, zebrafish (Danio rerio); settings: 300 μM, 7 h, with or without 1 h recovery
Procedure: The styryl pyridinium dye FM1-43 provides an optical measure of mechanotransduction channel function and, therefore, was used as a proxy for the viability of the neuromast cells treated with QX-294 or QX-301, as well as indirect information on the functional capability of newly formed HCs. FM1-43FX (Thermo Scientific, Waltham, MA, USA) uptake experiments in zebrafish were performed as previously described. Zebrafish were incubated with E3 alone (control) or in the presence of Qx-294 or Qx-301, both at 300 μM, for 7 h and then immediately exposed to 3 μM FM1-43FX for 40 s. Alternatively, animals were transferred to a fresh E3 solution for 1 h and then exposed to the dye. For mouse treatment, 24, 48, and 72 h after animals were injected with […] Qx-294 or Qx-301, their cochleae were dissected, transiently exposed to FM1-43 FX dye (1 mg/mL) for 45 s, and then fixed in 4% PFA. All animals were P28 at completion of the treatment. Fluorescence incorporated was quantified according to [19] using ImageJ (ImageJ2 1.54r).

| SMILES | EdU-positive cells in the OC at 72 h (mouse organ of Corti) | EdU-positive cells in the OC at 24 h and 48 h (mouse organ of Corti) | Aqueous solubility (Kinetic solubility assay) | solubility at 6 h (Kinetic solubility assay) | IC50 at 72 h [1] | FM1-43 fluorescence intensity in neuromasts vs control [2] |
| --- | --- | --- | --- | --- | --- | --- |
| c1ccc2nc(N3CCOCC3)cnc2c1 [Qx-294, 2-(morpholine)-quinoxaline] | no proliferating (EdU-positive) cells were observed | higher percentage of EdU-positive cells | low aqueous solubility | ~0.551 µg/mL (≈ 2.56 µM) | > 20 µg/mL | no significant differences |
| c1ccc2nc(N3CCCC3)cnc2c1 [Qx-301, 2-(pyrrolidine)-quinoxaline] | no proliferating (EdU-positive) cells were observed | higher percentage of EdU-positive cells | low aqueous solubility | 0.365 ± 0.028 µg/mL (≈ 1.83 µM) | > 20 µg/mL | no significant differences |
